For one assay, the system named is HUVEC. The assay is described as follows: Antiproliferative activity against HUVEC cells assessed as reduction in cell viability at 10 uM by alamar blue reagent based assay relative to control. To be noted: Homo sapiens. The class given is functional. On the technique in general: Resazurin is reduced to fluorescent resorufin, in cell work by metabolically active cells.

The next assay concerns Ehrlich. As to the kind of experiment: Antitumor activity against mouse Ehrlich carcinoma cell implanted in Swiss albino mouse model assessed as tumour growth inhibition at 10 mg/kg, po administered consecutively for 8 days relative to control. To be noted: 192 h, time 8 day, read-out: TGI. The class given is functional.
Assay [1] addresses Epidermal growth factor receptor (Homo sapiens) (UniProt P00533). As to the kind of experiment: Inhibition of human recombinant EGFR at 10 uM relative to control.
The target of assay [2] is Receptor tyrosine-protein kinase erbB-2 (Homo sapiens) (UniProt P04626). The assay is described as follows: Inhibition of human recombinant HER-2 at 10 uM relative to control.
Assay [3] has as its target Vascular endothelial growth factor receptor 2 (Homo sapiens) (UniProt P35968). As to the kind of experiment: Inhibition of N-terminal GST-tagged human recombinant VEGFR2 extracted from Sf9 cells at 10 uM relative to control. The class given is cell-free.
The next assay concerns MCF7. As to the kind of experiment: Antiproliferative activity against human MCF7 cells assessed as reduction in cell viability incubated for 48 hrs by MTT assay. To be noted: MCF7, 48 h. The assay is classed as functional, cell-based.
For assay [4], the target named is T1, Fas-activated serine/threonine kinase (Homo sapiens, UniProt Q14296).
T1 sequence (Q14296 whole entry): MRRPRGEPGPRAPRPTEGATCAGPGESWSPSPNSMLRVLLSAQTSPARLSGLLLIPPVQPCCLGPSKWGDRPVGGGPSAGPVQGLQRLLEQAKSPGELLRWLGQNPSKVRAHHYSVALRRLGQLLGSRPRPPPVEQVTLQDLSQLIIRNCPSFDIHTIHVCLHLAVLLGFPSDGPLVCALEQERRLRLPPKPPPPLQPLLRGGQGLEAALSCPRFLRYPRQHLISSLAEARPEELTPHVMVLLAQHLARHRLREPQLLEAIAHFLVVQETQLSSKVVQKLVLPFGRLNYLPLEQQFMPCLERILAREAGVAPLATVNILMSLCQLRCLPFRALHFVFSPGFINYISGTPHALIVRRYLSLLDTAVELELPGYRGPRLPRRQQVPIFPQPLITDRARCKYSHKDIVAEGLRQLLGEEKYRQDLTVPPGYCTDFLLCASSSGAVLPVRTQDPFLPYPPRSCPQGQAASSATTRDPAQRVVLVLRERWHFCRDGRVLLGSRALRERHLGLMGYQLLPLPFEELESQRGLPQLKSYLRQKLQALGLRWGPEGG
As to the kind of experiment: Inhibition of […] human FASTK (355 to 444 residues) extracted from Escherichia coli BL21 (DE3) by Malachite Green dye based assay.

The test system of another assay is SK-OV-3. The assay is described as follows: Antiproliferative activity against human SK-OV-3 cells overexpressing EGFR/HER-2 assessed as inhibition of cell growth at 10 uM relative to control. The class given is functional.
Another assay deals with MDA-MB-468. As to the kind of experiment: Antiproliferative activity against human MDA-MB-468 cells overexpressing EGFR/HER-2 assessed as inhibition of cell growth at 10 uM relative to control. The class given is functional.
For the next assay, the system named is NCI-H522. The assay is described as follows: Antiproliferative activity against human NCI-H522 cells overexpressing EGFR/HER-2 assessed as inhibition of cell growth at 10 uM relative to control. The assay is classed as functional.

For orientation: inhibition means how much of the control response was suppressed. For orientation: pIC50 means the negative decadic logarithm of the IC50, by convention in mol/L.

Structures are written as SMILES. pIC50: −log10 of the molar value.

Chain of Receptor tyrosine-protein kinase erbB-2 (Homo sapiens) (P04626 whole entry): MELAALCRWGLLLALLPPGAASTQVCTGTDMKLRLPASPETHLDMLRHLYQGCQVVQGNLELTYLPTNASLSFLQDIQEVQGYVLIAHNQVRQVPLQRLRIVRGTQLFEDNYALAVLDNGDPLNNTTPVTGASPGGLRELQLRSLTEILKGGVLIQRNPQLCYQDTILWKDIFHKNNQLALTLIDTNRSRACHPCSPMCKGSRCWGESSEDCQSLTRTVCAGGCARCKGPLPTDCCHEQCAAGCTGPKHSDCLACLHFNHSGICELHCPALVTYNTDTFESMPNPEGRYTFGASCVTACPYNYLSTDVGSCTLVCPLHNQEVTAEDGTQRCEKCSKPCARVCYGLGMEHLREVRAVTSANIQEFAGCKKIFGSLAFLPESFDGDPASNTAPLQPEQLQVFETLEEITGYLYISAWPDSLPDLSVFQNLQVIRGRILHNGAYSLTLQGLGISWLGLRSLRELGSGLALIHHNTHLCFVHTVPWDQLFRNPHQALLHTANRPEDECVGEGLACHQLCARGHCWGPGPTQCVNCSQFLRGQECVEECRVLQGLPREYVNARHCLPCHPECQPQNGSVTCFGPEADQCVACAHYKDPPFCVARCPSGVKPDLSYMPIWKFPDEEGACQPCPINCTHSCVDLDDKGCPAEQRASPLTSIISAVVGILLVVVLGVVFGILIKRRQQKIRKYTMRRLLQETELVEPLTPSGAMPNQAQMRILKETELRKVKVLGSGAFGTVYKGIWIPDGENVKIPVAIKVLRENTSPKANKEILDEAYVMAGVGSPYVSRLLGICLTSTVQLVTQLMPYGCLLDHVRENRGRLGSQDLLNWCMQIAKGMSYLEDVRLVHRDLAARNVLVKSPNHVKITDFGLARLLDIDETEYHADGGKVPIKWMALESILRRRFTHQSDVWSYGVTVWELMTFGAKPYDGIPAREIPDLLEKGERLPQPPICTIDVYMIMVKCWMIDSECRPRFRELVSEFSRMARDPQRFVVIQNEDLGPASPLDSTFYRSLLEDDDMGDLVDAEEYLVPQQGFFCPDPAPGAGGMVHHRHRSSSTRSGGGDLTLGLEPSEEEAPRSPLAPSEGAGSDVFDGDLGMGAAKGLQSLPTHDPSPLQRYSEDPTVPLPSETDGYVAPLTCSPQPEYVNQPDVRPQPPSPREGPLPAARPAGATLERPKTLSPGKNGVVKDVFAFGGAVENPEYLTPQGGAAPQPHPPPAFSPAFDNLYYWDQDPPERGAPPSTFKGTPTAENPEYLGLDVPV
Chain of Epidermal growth factor receptor (Homo sapiens) (P00533 whole entry): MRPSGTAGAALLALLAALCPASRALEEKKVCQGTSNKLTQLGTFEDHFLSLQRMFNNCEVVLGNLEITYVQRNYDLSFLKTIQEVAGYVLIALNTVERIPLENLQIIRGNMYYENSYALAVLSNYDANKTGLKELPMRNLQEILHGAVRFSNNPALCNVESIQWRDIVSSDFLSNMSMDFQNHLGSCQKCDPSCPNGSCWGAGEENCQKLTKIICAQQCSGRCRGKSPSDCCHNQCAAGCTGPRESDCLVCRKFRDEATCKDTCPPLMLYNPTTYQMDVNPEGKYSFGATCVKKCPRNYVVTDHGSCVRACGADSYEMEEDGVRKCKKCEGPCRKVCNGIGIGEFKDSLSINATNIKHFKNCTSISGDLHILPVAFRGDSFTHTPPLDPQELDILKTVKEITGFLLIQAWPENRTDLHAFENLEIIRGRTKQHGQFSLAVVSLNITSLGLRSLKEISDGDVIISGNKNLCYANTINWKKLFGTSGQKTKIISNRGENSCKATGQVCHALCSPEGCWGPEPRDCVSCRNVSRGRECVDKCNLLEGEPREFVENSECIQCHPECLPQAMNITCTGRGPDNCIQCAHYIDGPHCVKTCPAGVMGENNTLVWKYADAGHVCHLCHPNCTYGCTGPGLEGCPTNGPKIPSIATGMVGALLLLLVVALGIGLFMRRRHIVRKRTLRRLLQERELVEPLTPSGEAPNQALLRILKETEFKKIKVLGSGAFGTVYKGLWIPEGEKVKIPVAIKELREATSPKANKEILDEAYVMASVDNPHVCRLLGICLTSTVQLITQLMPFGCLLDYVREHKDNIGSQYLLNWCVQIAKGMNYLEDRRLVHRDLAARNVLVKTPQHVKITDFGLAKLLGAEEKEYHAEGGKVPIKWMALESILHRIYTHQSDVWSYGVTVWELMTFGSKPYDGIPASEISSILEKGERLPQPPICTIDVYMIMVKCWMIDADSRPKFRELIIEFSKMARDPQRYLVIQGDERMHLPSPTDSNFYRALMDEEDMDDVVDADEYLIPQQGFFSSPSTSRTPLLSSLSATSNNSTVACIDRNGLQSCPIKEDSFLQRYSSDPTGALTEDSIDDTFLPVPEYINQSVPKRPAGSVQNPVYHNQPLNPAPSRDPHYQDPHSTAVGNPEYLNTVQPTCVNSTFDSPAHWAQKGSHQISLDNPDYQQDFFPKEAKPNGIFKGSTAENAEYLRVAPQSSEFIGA
Chain of Vascular endothelial growth factor receptor 2 (Homo sapiens) (P35968 whole entry): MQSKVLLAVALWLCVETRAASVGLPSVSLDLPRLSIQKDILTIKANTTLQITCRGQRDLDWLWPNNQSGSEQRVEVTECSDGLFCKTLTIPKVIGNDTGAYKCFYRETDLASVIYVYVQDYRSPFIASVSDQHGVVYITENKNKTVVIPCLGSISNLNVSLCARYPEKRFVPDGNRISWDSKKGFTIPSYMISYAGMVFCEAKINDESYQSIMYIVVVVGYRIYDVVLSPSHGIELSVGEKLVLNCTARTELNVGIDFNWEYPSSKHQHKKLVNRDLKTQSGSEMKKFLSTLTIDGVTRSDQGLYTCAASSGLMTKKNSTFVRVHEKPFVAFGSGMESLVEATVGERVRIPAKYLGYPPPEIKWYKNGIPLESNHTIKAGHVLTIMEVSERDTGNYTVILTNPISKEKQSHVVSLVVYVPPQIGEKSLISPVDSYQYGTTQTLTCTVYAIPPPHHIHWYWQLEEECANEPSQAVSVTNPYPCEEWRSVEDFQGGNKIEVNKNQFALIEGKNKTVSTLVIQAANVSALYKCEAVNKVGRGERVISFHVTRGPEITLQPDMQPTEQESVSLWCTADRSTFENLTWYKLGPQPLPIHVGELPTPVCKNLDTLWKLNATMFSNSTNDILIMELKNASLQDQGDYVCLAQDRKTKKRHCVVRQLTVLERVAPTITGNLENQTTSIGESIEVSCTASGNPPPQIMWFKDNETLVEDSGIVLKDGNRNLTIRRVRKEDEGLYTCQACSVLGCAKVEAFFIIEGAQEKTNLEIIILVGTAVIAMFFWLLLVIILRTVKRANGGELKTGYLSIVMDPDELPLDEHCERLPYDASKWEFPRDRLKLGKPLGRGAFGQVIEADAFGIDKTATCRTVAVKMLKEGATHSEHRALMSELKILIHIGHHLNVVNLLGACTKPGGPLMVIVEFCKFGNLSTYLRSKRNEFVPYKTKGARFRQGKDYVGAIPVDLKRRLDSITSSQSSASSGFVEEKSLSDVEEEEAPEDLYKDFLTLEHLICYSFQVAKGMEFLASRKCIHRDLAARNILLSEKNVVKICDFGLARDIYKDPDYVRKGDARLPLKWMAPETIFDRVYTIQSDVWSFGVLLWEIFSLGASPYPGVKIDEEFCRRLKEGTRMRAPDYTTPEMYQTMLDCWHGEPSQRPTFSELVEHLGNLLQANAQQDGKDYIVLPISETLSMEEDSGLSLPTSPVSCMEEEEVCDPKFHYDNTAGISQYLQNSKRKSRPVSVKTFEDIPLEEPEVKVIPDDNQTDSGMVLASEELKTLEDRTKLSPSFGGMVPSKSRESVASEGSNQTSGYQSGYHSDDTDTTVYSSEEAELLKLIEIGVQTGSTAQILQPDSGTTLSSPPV

As for `Cc1ccc(NC(=O)Nc2ccc(Oc3ncnc4sc5c(c34)CCCC5)cc2)cc1Cl`, the inhibition at 10 µM in the assay with HUVEC stood at 46%. The inhibition in vivo at 10 mg/kg with Ehrlich worked out at 82.7%.
Regarding `O=C(Nc1ccccc1)Nc1ccc(Oc2ncnc3sc4c(c23)CCCC4)cc1`, the inhibition at 10 µM in the assay on HUVEC came to 64.3%.
With `Fc1cccc(COc2ccc(Nc3ncnc4sc5c(c34)CCCC5)cc2)c1`, the inhibition was determined as 93% in [1] and 84% in [2].
On to `O=C(Nc1ccc(Cl)cc1)Nc1ccc(Oc2ncnc3sc4c(c23)CCCC4)cc1`, for which the inhibition in [3] amounted to 46%.
With `O=C(/C=C/c1ccc(Cl)cc1)c1ccc(Nc2ncnc3sc4c(c23)CCCC4)cc1`, the pIC50 in the assay on MCF7 was 5.19; in assay [4], 6.77.
In the same order, the values of `COc1ccc(/C=C/C(=O)c2ccc(Nc3ncnc4sc5c(c34)CCCC5)cc2)cc1OC` are 5.09 and 6.82.
Consider `Clc1cc(Nc2ncnc3sc4c(c23)CCCC4)ccc1OCc1ccccc1`, for which the inhibition in assay [1] was found to be 93%; in [2], 84%.
Regarding `O=C(/C=C/c1ccccc1)c1ccc(Nc2ncnc3sc4c(c23)CCCC4)cc1`, the pIC50 in the assay on MCF7 was 4.69; in assay [4], 6.49.
`Fc1cccc(COc2ccc(Nc3ncnc4sc5c(c34)CCCC5)cc2Cl)c1`: the inhibition was 93% in [1] and 84% in assay [2]. Also, the inhibition at 10 µM came to 80.6% in the assay with SK-OV-3, 68.2% with MDA-MB-468 and 56% with NCI-H522.
With `Cc1cccc(NC(=O)Nc2ccc(Oc3ncnc4sc5c(c34)CCCC5)cc2)c1`, the inhibition at 10 µM with HUVEC came to 82%. For the same compound, the inhibition in vivo at 10 mg/kg in the assay on Ehrlich worked out at 86.4%.
For the compound `Fc1ccc(COc2ccc(Nc3ncnc4sc5c(c34)CCCC5)cc2Cl)cc1`, the inhibition worked out at 93% in [1] and 84% in [2].
Take `COc1cccc(NC(=O)Nc2ccc(Oc3ncnc4sc5c(c34)CCCC5)cc2)c1`: the inhibition at 10 µM in the assay on HUVEC amounted to 79.2%.
Take `c1ccc(COc2ccc(Nc3ncnc4sc5c(c34)CCCC5)cc2)cc1`: the inhibition in [1] amounted to 93%; in assay [2], 84%.

These data come from ChEMBL document CHEMBL6114993, “Thienopyrimidine: A promising scaffold in the development of kinase inhibitors with anticancer activities” (Bioorg Med Chem, 2025).
